From paper PMC4427186, “Forskolin Suppresses Delayed-Rectifier K^+ Currents and Enhances Spike Frequency-Dependent Adaptation of Sympathetic Neurons” (PLoS ONE, 2015)

Molecular target: T1, Kv2.1 α subunit (Rattus norvegicus, UniProt P15387)
T1 construct: gene Kcnb1; homomeric channel
T1 sequence (P15387 1-857): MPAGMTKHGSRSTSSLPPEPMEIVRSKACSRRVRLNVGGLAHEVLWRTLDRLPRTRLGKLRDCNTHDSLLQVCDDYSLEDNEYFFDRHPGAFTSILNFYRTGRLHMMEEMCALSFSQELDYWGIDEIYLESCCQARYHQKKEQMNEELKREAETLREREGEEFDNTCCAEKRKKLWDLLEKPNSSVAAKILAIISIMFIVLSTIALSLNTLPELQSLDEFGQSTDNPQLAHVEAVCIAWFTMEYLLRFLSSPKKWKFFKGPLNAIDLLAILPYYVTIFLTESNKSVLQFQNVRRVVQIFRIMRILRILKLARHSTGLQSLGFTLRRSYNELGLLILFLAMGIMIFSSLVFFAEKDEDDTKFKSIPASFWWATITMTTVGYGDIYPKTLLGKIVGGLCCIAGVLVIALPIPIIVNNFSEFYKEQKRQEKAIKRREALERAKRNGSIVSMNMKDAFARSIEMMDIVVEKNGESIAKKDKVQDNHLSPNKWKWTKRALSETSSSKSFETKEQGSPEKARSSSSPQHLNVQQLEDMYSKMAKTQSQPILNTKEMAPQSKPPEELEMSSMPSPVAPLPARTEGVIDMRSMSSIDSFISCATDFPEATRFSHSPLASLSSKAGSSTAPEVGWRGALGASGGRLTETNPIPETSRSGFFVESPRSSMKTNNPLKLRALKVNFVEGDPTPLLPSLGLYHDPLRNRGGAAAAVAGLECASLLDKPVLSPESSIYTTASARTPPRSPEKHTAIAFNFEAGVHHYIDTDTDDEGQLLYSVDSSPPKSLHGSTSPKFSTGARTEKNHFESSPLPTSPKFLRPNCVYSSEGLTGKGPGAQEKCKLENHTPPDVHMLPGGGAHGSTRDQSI
Test: whole-cell patch clamp, tail current amplitude
Assay type: cell-based

IC50: 31.6 µM
SMILES: C=C[C@@]1(C)CC(=O)[C@]2(O)[C@@]3(C)[C@@H](O)CCC(C)(C)[C@@H]3[C@H](O)[C@H](OC(C)=O)[C@@]2(C)O1 [forskolin]
